For `CCS(=O)(=O)NC(C(=O)NCCc1ccc(OC)c(OC)c1)c1ccc(Cl)cc1` (stereo not shown), which melting point is on record?
The melting point was 136 to 138 °C.

Source: patent US6391918B1, “N-sulphonyl and N-sulphinyl phenylglycinamide” (priority 1998, dated 2002)
